{
  "source": "patent US20250049677A1",
  "about": "“Oxa-Macrocyclic Musk as Fragrance Compounds” (Symrise AG, priority 2021, published 2025)",
  "origin": "cited, not measured here",
  "key": {"[1]": {"details": "background statement on prior art"}, "[2]": {"details": "background statement on prior art", "remark": "listed apart in the source"}},
  "data": [
    {"smiles": "C[C@@H]1CCCCCCCCCCCCC(=O)C1", "note": "[Muscone, (R)-3-methylcyclopentadecanone]", "values": [
      {"measurement": "Biodegradability", "setting": "[1]", "value": "badly biodegradable"},
      {"measurement": "Solubility in water", "setting": "[2]", "value": "only very slightly soluble in water"}
    ]}
  ]
}
